Where two headings read alike, the source gives them in different places.
Key:
[1] = molecular target: NK1 receptor (Homo sapiens, UniProt P25103); test: neurokinin receptor binding assay, NK1 (Ki)
Description: (§1) The in vitro and in vivo activity of the compounds of formula I can be determined by various procedures known in the art, such as a test for their ability to inhibit the activity of the NK1 agonist Substance P, an isolated hamster trachea NK2 assay, a test of the effect of NK1 antagonists on Substance P-induced airway microvascular leakage, measurement of NK2 activity in vivo in guinea pigs, measurement of bronchoconstriction due to NKA, and neurokinin receptor binding assay(s). Typical procedures are described in WO96/34857, published Nov. 7, 1996. NK3 activity is determined by following a procedure similar to that described in the literature, e.g., Molecular Pharmacol., 48 (1995), p. 711-716.
(§2) % Inhibition is the difference between the percent of maximum specific binding (MSB) and 100%. The percent of MSB is defined by the following equation, wherein "dpm" is disintegrations per minute: [formula]
(§3) Using the test procedures described above, the following 35 data (Ki) were obtained for exemplified compounds: […]

[2] = molecular target: T1, NK2 receptor (Homo sapiens, UniProt P21452); test: neurokinin receptor binding assay, NK2 (Ki)
T1 sequence (P21452 1-398): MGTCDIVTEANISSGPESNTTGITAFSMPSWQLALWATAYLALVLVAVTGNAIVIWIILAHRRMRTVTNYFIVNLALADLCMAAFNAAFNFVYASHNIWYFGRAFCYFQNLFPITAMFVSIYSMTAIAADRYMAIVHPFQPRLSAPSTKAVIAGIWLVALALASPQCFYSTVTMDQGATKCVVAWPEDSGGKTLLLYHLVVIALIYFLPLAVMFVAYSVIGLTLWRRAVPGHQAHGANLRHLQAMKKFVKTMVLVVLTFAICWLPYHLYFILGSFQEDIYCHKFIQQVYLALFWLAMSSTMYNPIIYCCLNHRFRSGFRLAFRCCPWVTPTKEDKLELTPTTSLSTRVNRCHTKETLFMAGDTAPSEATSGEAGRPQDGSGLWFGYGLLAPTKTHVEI
Description: as §1, §2, §3

Chain of NK1 receptor (P25103 whole entry): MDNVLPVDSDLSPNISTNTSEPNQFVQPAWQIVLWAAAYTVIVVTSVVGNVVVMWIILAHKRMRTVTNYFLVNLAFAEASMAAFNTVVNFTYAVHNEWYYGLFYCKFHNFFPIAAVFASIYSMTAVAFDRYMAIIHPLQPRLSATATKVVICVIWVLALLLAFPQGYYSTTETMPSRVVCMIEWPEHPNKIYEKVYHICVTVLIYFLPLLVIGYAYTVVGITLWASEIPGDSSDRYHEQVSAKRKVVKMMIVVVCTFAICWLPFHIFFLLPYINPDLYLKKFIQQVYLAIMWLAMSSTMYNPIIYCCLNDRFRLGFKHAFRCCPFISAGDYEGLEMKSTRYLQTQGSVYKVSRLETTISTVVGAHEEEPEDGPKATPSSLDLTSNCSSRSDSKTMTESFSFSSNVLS

| Structure (SMILES) | Ki ([1]; compound of Example 11, amide disclosed in U.S. Pat. No. 5,696,267, read-out: Ki for the NK1 receptor (unit inferred)) | Ki ([2]; compound of Example 11, amide disclosed in U.S. Pat. No. 5,696,267, read-out: Ki for the NK2 receptor (unit inferred)) | Ki ([1]; read-out: Ki (NK1)) | Ki ([2]; read-out: Ki (NK2)) |
| --- | --- | --- | --- | --- |
| CO/N=C(\CN(C)C(=O)c1cc(C(F)(F)F)cc(C(F)(F)F)c1)C(CCN1CCC(O)(c2ccccc2)CC1)c1ccc(Cl)c(Cl)c1 (stereo not drawn) [Example 11] | 3.6 nM | 9.2 nM |  |  |
| CON=C(CN(C)C(=O)c1cc(Cl)cc(Cl)c1)C(CCN1CCC(N2CCCC(CC(=O)N3CC(O)C3)C2=O)CC1)c1ccc(Cl)c(Cl)c1 (stereo not drawn) [Example 12E] |  |  | 0.4 nM | 0.2 nM |
| CON=C(CN(C)C(=O)c1cc(Cl)cc(Cl)c1)C(CCN1CCC(N2CCCC(CC(=O)N3CCCC3)C2=O)CC1)c1ccc(Cl)c(Cl)c1 (stereo not drawn) [Example 12F] |  |  | 0.6 nM | 0.8 nM |
| CON=C(CN(C)C(=O)c1cc(Cl)cc(Cl)c1)C(CCN1CCC(N2CCCC(CC(=O)N3CCOCC3)C2=O)CC1)c1ccc(Cl)c(Cl)c1 (stereo not drawn) [Example 12K] |  |  | 0.9 nM | 0.5 nM |
| CON=C(CN(C)C(=O)c1cc(Cl)cc(Cl)c1)C(CCN1CCC(N2CCCC(CC(=O)N3CCC(O)CC3)C2=O)CC1)c1ccc(Cl)c(Cl)c1 (stereo not drawn) [Example 12L] |  |  | 0.5 nM | 0.9 nM |
| CON=C(CN(C)C(=O)c1cc(Cl)cc(Cl)c1)[C@H](CCN1CCC(N2CCC[C@H](CC(=O)N(C)C)C2=O)CC1)c1ccc(Cl)c(Cl)c1 [Example 13A] |  |  | 0.8 nM | 0.2 nM |
| CNC(=O)C[C@H]1CCCN(C2CCN(CC[C@@H](C(CN(C)C(=O)c3cc(Cl)cc(Cl)c3)=NOC)c3ccc(Cl)c(Cl)c3)CC2)C1=O [Example 13B] |  |  | 0.9 nM | 0.3 nM |
| CON=C(CN(C)C(=O)c1cc(Cl)cc(Cl)c1)[C@H](CCN1CCC(N2CCC[C@H](CC(N)=O)C2=O)CC1)c1ccc(Cl)c(Cl)c1 [Example 13C] |  |  | 0.4 nM | 0.2 nM |
| CON=C(CN(C)C(=O)c1cc(Cl)cc(Cl)c1)[C@H](CCN1CCC(N2CCCCC2=O)CC1)c1ccc(Cl)c(Cl)c1 [Example 13D] |  |  | 1.1 nM | 0.7 nM |
| CON=C(CN(C)C(=O)c1cc(Cl)cc(Cl)c1)[C@H](CCN1CCC(N2CCC[C@H](CC(=O)O)C2=O)CC1)c1ccc(Cl)c(Cl)c1 [Example 13E] |  |  | 0.4 nM | 0.6 nM |
| CON=C(CN(C)C(=O)c1cc(Cl)cc(Cl)c1)[C@H](CCN1CCC(N2CCC[C@H](CC(=O)OC)C2=O)CC1)c1ccc(Cl)c(Cl)c1 [Example 13F] |  |  | 0.2 nM | 0.3 nM |
| CON=C(CN(C)C(=O)c1cc(Cl)cc(Cl)c1)[C@H](CC[N+]1([O-])CCC(N2CCCCC2=O)CC1)c1ccc(Cl)c(Cl)c1 (stereo partly drawn) [Example 13G] |  |  | 1.5 nM | 0.4 nM |
| CNC(=O)C[C@H]1CCCN(C2CC[N+]([O-])(CC[C@@H](C(CN(C)C(=O)c3cc(Cl)cc(Cl)c3)=NOC)c3ccc(Cl)c(Cl)c3)CC2)C1=O (stereo partly drawn) [Example 13H] |  |  | 2.6 nM | 0.4 nM |
| CN(C)C(=O)CC1CCCN(C2CCN(CCC(C(CN(C)C(=O)c3cc(Cl)cc(Cl)c3)=NO)c3ccc(Cl)c(Cl)c3)CC2)C1=O (stereo not drawn) [Example 14B] |  |  | 0.3 nM | 0.8 nM |
| CN(C)C(=O)CC1CCCN(C2CCN(CCC(C(CN(C)C(=O)c3cc(Cl)cc(Cl)c3)=NOCC(N)=NO)c3ccc(Cl)c(Cl)c3)CC2)C1=O (stereo not drawn) [Example 14D] |  |  | 0.3 nM | 0.2 nM |
| CON=C(N)CON=C(CN(C)C(=O)c1cc(Cl)cc(Cl)c1)C(CCN1CCC(N2CCCC(CC(=O)N(C)C)C2=O)CC1)c1ccc(Cl)c(Cl)c1 (stereo not drawn) [Example 14E] |  |  | 0.2 nM | 0.4 nM |
| CNC(=O)CC1CCCN(C2CCN(CCC(C(CN(C)C(=O)c3cc(Cl)cc(Cl)c3)=NO)c3ccc(Cl)c(Cl)c3)CC2)C1=O (stereo not drawn) [Example 15A] |  |  | 0.2 nM | 0.7 nM |
| CNC(=O)CC1CCCN(C2CCN(CCC(C(CN(C)C(=O)c3cc(Cl)cc(Cl)c3)=NOCC#N)c3ccc(Cl)c(Cl)c3)CC2)C1=O (stereo not drawn) [Example 15B] |  |  | 1.7 nM | 0.8 nM |

| Structure (SMILES) | Ki ([1]; compound of Example 11, amide disclosed in U.S. Pat. No. 5,696,267, read-out: Ki for the NK1 receptor (unit inferred)) | Ki ([2]; compound of Example 11, amide disclosed in U.S. Pat. No. 5,696,267, read-out: Ki for the NK2 receptor (unit inferred)) | Ki ([1]; read-out: Ki (NK1)) | Ki ([2]; read-out: Ki (NK2)) |
| --- | --- | --- | --- | --- |
| CNC(=O)CC1CCCN(C2CCN(CCC(C(CN(C)C(=O)c3cc(Cl)cc(Cl)c3)=NOCC(N)=O)c3ccc(Cl)c(Cl)c3)CC2)C1=O (stereo not drawn) [Example 15D] |  |  | 0.4 nM | 0.5 nM |
| CNC(=O)CON=C(CN(C)C(=O)c1cc(Cl)cc(Cl)c1)C(CCN1CCC(N2CCCC(CC(=O)NC)C2=O)CC1)c1ccc(Cl)c(Cl)c1 (stereo not drawn) [Example 15E] |  |  | 0.5 nM | 1 nM |
| CNC(=O)CC1CCCN(C2CCN(CCC(C(CN(C)C(=O)c3cc(Cl)cc(Cl)c3)=NOCC(N)=NO)c3ccc(Cl)c(Cl)c3)CC2)C1=O (stereo not drawn) [Example 15F] |  |  | 0.4 nM | 0.8 nM |
| CNC(=O)CC1CCCN(C2CCN(CCC(C(CN(C)C(=O)c3cc(Cl)cc(Cl)c3)=NOCC(=O)Nc3nncs3)c3ccc(Cl)c(Cl)c3)CC2)C1=O (stereo not drawn) [Example 15G] |  |  | 0.9 nM | 1.3 nM |
| CNC(=O)CC1CCCN(C2CCN(CCC(C(CN(C)C(=O)c3cc(Cl)cc(Cl)c3)=NOCCCS(=O)(=O)O)c3ccc(Cl)c(Cl)c3)CC2)C1=O (stereo not drawn) [Example 15H] |  |  | 0.2 nM | 0.4 nM |
| CNC(=O)CC1CCCN(C2CCN(CCC(C(CN(C)C(=O)c3cc(Cl)cc(Cl)c3)=NOCC(=O)NCC#N)c3ccc(Cl)c(Cl)c3)CC2)C1=O (stereo not drawn) [Example 15I] |  |  | 0.8 nM | 1 nM |
| CNC(=O)CC1CCCN(C2CCN(CCC(C(CN(C)C(=O)c3cc(Cl)cc(Cl)c3)=NOCC(=O)NCS(=O)(=O)O)c3ccc(Cl)c(Cl)c3)CC2)C1=O (stereo not drawn) [Example 15J] |  |  | 0.7 nM | 4.3 nM |
| CNC(=O)CC1CCCN(C2CCN(CCC(C(CN(C)C(=O)c3cc(Cl)cc(Cl)c3)=NOCF)c3ccc(Cl)c(Cl)c3)CC2)C1=O (stereo not drawn) [Example 15K] |  |  | 0.5 nM | 0.2 nM |
| CCON=C(CN(C)C(=O)c1cc(Cl)cc(Cl)c1)C(CCN1CCC(N2CCCC(CC(=O)NC)C2=O)CC1)c1ccc(Cl)c(Cl)c1 (stereo not drawn) [Example 15L] |  |  | 1 nM | 1.4 nM |
| CNC(=O)CC1CCCN(C2CCN(CCC(C(CN(C)C(=O)c3cc(Cl)cc(Cl)c3)=NOCC(N)=NOC)c3ccc(Cl)c(Cl)c3)CC2)C1=O (stereo not drawn) [Example 15M] |  |  | 0.2 nM | 0.3 nM |
| CN(CC(=NO)C(CCN1CCC(N2CCCC(CC(N)=O)C2=O)CC1)c1ccc(Cl)c(Cl)c1)C(=O)c1cc(Cl)cc(Cl)c1 (stereo not drawn) [Example 16A] |  |  | 0.2 nM | 0.7 nM |
| CN(CC(=NO)C(CCN1CCC(N2CCCCC2=O)CC1)c1ccc(Cl)c(Cl)c1)C(=O)c1cc(Cl)cc(Cl)c1 (stereo not drawn) [Example 17A] |  |  | 0.5 nM | 3 nM |
| CN(CC(=NOCC(N)=NO)C(CCN1CCC(N2CCCCC2=O)CC1)c1ccc(Cl)c(Cl)c1)C(=O)c1cc(Cl)cc(Cl)c1 (stereo not drawn) [Example 17E] |  |  | 0.7 nM | 0.7 nM |
| CN(CC(=NOCCCS(=O)(=O)O)C(CCN1CCC(N2CCCCC2=O)CC1)c1ccc(Cl)c(Cl)c1)C(=O)c1cc(Cl)cc(Cl)c1 (stereo not drawn) [Example 17K] |  |  | 3.3 nM | 2.7 nM |
| CN(CC(=NOCF)C(CCN1CCC(N2CCCCC2=O)CC1)c1ccc(Cl)c(Cl)c1)C(=O)c1cc(Cl)cc(Cl)c1 (stereo not drawn) [Example 17S] |  |  | 0.8 nM | 0.8 nM |
| CON=C(CN(C)C(=O)c1cc(C)cc(C)c1)C(CCN1CCC(N2CCCCC2=O)CC1)c1ccc(Cl)c(Cl)c1 (stereo not drawn) [Example 18B] |  |  | 0.8 nM | 0.4 nM |
| Cc1cc(C)cc(C(=O)N(C)CC(=NOCC#N)C(CCN2CCC(N3CCCCC3=O)CC2)c2ccc(Cl)c(Cl)c2)c1 (stereo not drawn) [Example 18D] |  |  | 0.4 nM | 0.4 nM |
| Cc1cc(C)cc(C(=O)N(C)CC(=NOCC(N)=NO)C(CCN2CCC(N3CCCCC3=O)CC2)c2ccc(Cl)c(Cl)c2)c1 (stereo not drawn) [Example 18E] |  |  | 0.4 nM | 0.4 nM |

From patent US6063926A, “Substituted oximes as neurokinin antagonists” (Schering Corporation, priority 1998, dated 2000)
